Organism: Rattus norvegicus
Test: Open TG-GATES - Regimen: Single
Assay type: toxicity, organism-based, Sprague-Dawley
Design: regimen Single, gender Male, age 6 weeks
Conditions: in vivo, iv, 20 mg/kg, route intravenous injection, dose level Middle; for APTT / Bas / Eos / Fbg / Hb / Ht / Lym / MCH / MCHC / MCV / Mono / Neu / PT / Plat / RBC / Ret / WBC: tissue Blood; for KIDNEY_L / KIDNEY_R / KIDNEY_TOTAL: tissue Kidney; for LIVER: tissue Liver; for A/G / ALP / ALT / AST / BUN / CRE / Ca / Cl / DBIL / GLC / IP / K / LDH / Na / PL / RALB / TBIL / TC / TG / TP / gamma-GTP: tissue Plasma

## NCCBr [BROMOETHANAMINE]
3 h
  TERMINAL_BW: 213.1 g
  APTT: 23.3 s
  Bas: 0%
  Eos: 0.8%
  Fbg: 304 mg/dL
  Hb: 13.6 g/dL
  Ht: 39.3%
  Lym: 77.8%
  MCH: 21.5 pg
  MCHC: 34.7%
  MCV: 61.9 fL
  Mono: 2.2%
  Neu: 18.8%
  PT: 16.2 s
  Plat: 141.3 x10_4/uL
  RBC: 635 x10_4/ul
  Ret: 5.8%
  WBC: 60.9 x10_2/uL
  KIDNEY_L: 0.9 g
  KIDNEY_R: 0.9 g
  KIDNEY_TOTAL: 1.9 g
  LIVER: 9.4 g
  A/G: 1.2
  ALP: 1554.2 IU/L
  ALT: 41.2 IU/L
  AST: 67.2 IU/L
  BUN: 11.6 mg/dL
  CRE: 0.1 mg/dL
  Ca: 10.8 mg/dL
  Cl: 105 meq/L
  DBIL: 0 mg/dL
  GLC: 189.8 mg/dL
  IP: 9.8 mg/dL
  K: 3.8 meq/L
  LDH: 210 IU/L
  Na: 143.2 meq/L
  PL: 130.8 mg/dL
  RALB: 3.1 g/dL
  TBIL: 0.014 mg/dL
  TC: 79.4 mg/dL
  TG: 50.2 mg/dL
  TP: 5.7 g/dL
  gamma-GTP: 1.6 IU/L
6 h
  TERMINAL_BW: 214.7 g
  APTT: 23.7 s
  Bas: 0%
  Eos: 1%
  Fbg: 308.8 mg/dL
  Hb: 13.5 g/dL
  Ht: 39.4%
  Lym: 74.4%
  MCH: 21.6 pg
  MCHC: 34.3%
  MCV: 63 fL
  Mono: 2.2%
  Neu: 21.4%
  PT: 16.1 s
  Plat: 126.9 x10_4/uL
  RBC: 624.6 x10_4/ul
  Ret: 6.1%
  WBC: 83.3 x10_2/uL
  KIDNEY_L: 1 g
  KIDNEY_R: 1 g
  KIDNEY_TOTAL: 2 g
  LIVER: 8.8 g
  A/G: 1.2
  ALP: 1286 IU/L
  ALT: 34.2 IU/L
  AST: 68.6 IU/L
  BUN: 9.8 mg/dL
  CRE: 0.2 mg/dL
  Ca: 10.5 mg/dL
  Cl: 105.8 meq/L
  DBIL: 0 mg/dL
  GLC: 183.4 mg/dL
  IP: 9.9 mg/dL
  K: 4.2 meq/L
  LDH: 183.2 IU/L
  Na: 142 meq/L
  PL: 117.2 mg/dL
  RALB: 2.9 g/dL
  TBIL: 0.026 mg/dL
  TC: 74.4 mg/dL
  TG: 28.8 mg/dL
  TP: 5.5 g/dL
  gamma-GTP: 1.6 IU/L
9 h
  TERMINAL_BW: 205.7 g
  APTT: 23.8 s
  Bas: 0%
  Eos: 0.6%
  Fbg: 343 mg/dL
  Hb: 13.9 g/dL
  Ht: 40%
  Lym: 74.4%
  MCH: 21 pg
  MCHC: 34.7%
  MCV: 60.5 fL
  Mono: 3%
  Neu: 21.2%
  PT: 15.9 s
  Plat: 121.7 x10_4/uL
  RBC: 662.2 x10_4/ul
  Ret: 5.5%
  WBC: 69.4 x10_2/uL
  KIDNEY_L: 1 g
  KIDNEY_R: 1 g
  KIDNEY_TOTAL: 2 g
  LIVER: 8.4 g
  A/G: 1.1
  ALP: 1380.4 IU/L
  ALT: 32.6 IU/L
  AST: 63 IU/L
  BUN: 12.2 mg/dL
  CRE: 0.2 mg/dL
  Ca: 10.6 mg/dL
  Cl: 105.4 meq/L
  DBIL: 0 mg/dL
  GLC: 187 mg/dL
  IP: 9.4 mg/dL
  K: 3.7 meq/L
  LDH: 170.6 IU/L
  Na: 142.8 meq/L
  PL: 139 mg/dL
  RALB: 3 g/dL
  TBIL: 0.018 mg/dL
  TC: 80.2 mg/dL
  TG: 66.2 mg/dL
  TP: 5.8 g/dL
  gamma-GTP: 1.2 IU/L
24 h
  TERMINAL_BW: 213.8 g
  APTT: 22.4 s
  Bas: 0%
  Eos: 0.8%
  Fbg: 384.6 mg/dL
  Hb: 13.9 g/dL
  Ht: 40.7%
  Lym: 80.8%
  MCH: 21.1 pg
  MCHC: 34%
  MCV: 61.9 fL
  Mono: 2.6%
  Neu: 15%
  PT: 16.4 s
  Plat: 123.2 x10_4/uL
  RBC: 659.2 x10_4/ul
  Ret: 4.9%
  WBC: 85.8 x10_2/uL
  KIDNEY_L: 1 g
  KIDNEY_R: 1 g
  KIDNEY_TOTAL: 2 g
  LIVER: 9.5 g
  A/G: 1.1
  ALP: 1544 IU/L
  ALT: 41.8 IU/L
  AST: 69.8 IU/L
  BUN: 25.6 mg/dL
  CRE: 0.2 mg/dL
  Ca: 11 mg/dL
  Cl: 105.6 meq/L
  DBIL: 0.002 mg/dL
  GLC: 190.4 mg/dL
  IP: 6.7 mg/dL
  K: 4.2 meq/L
  LDH: 200.8 IU/L
  Na: 142.8 meq/L
  PL: 152.2 mg/dL
  RALB: 3 g/dL
  TBIL: 0.012 mg/dL
  TC: 89.6 mg/dL
  TG: 89 mg/dL
  TP: 5.7 g/dL
  gamma-GTP: 2.2 IU/L

Reference: ChEMBL document CHEMBL3885861, “Open TG-GATES”
